Results published in paper doi:10.1101/2025.09.29.679234, “Engineered antimicrobial-derived peptides to manipulate mixed microbial systems” (bioRxiv, 2025).
Where two headings read alike, the source gives them in different places. No end group written: not given here. *: point of attachment. FITC = O=C1OC2(c3ccc(O)cc3Oc3cc(O)ccc32)c2ccc(NC(=S)*)cc21

Columns and labels:
L. seeligeri [1] = assay: Cell-binding assay by flow cytometry; design: species or system Listeria seeligeri; conditions: for binding at the tested pHs (in words): pH 4.0, 6.0 and 7.4, Figure S10
Protocol: (§1) The binding affinity and avidity of pediocin to various Gram-positive and Gram-negative bacteria were studied using flow cytometry. Late log-phase cells were washed in the sodium phosphate buffer (5 mM, pH 6.0) and resuspended at an OD600 of 10^–3 in sodium-acetate buffer (25 mM, pH 4.0), sodium phosphate buffer (5 mM, pH 6.0) or sodium phosphate buffer (5mM, pH 7.4) containing 1 % BSA (bovine serum albumin) and 100 mM NaCl. Cells were incubated with varying concentrations of the conjugated peptide at 4 °C for 30 min. The unbound peptide was removed by centrifugation, and the pellet was resuspended in their respective binding containing 1 % BSA. Flow cytometry was performed on an Attune NxT flow cytometer (Life Technologies/ThermoFisher Scientific, Carlsbad, CA). Data (≥10^4 events were recorded) was recorded using a […] (488 nm) voltage of 360 V, gating was performed on SSC-A versus SSC-H plot to reduce false events.

L. seeligeri [2] = type: cell-based, Listeria seeligeri; conditions: for antimicrobial activity (in words): kill curve / growth inhibition, Figures S7 and S9
Protocol: To determine the potency of the purified pediocin PA-1, we generated kill-curves against a range of target bacteria (Figure 1B). The concentration range tested was 3 pM to 3 μM following 10-fold serial dilutions. […] This is in approximate agreement with the published potency of pediocin PA-1 [28] . Though the molecular mass of pediocin PA-1 is expected to be 4.5 kDa, we observed the partially purified peptide to migrate with an apparent mass of ~12.5 kDa (Figure 1B). However, subsequent analysis by LC-MS yielded peaks of multiple m/z with the predominant peak at the expected molecular size of 4.6 kDa (Figure S4). The purified pediocin PA-1, separated on denaturing but non-reducing SDS-PAGE (since this bacteriocin contains two crucial disulfide bonds), was subjected to agar-overlay assay using L. seeligeri as indicator organism (Figure S5).
The antimicrobial spectrum of pediocin PA-1 was assayed using a kill curve. Cultures grown overnight were resuspended in fresh medium at an OD600 of 0.05. EC50 was determined by incubating cells with varying concentrations of pediocin in a 96-well plate, and growth was measured at 600 nm after 24 h.
Figure S7. Growth inhibition of L. seeligeri by modified and unmodified pediocin PA-1.

L. coryniformis = assay: Cell-binding assay by flow cytometry; design: species or system Lactobacillus coryniformis; conditions: flow cytometry, Atto488 conjugate up to 2 μM
Protocol: as §1

B. subtilis = assay: Cell-binding assay by flow cytometry; design: species or system Bacillus subtilis; conditions: flow cytometry
Protocol: as §1

[3] = system: L. seeligeri in a 5 species synthetic community; assay: Depletion by FACS of FITC-labelled cells in the mixed community (16S V3-V4 amplicon sequencing of the fluorescence-negative population); type: cell-based, Listeria seeligeri; conditions: 40 μM of Ped-FITC printed in method, 4 °C 30 min, pH 6.0, 1 % BSA, 100 mM NaCl
Description: We posited that pediocin PA-1 characterized here could be a potential tool to modulate the abundance of specific species in an intact microbial community. To this end, we pursued two approaches: 1) using synthetic pediocin PA-1 to deplete specific species by killing and 2) using FITC-conjugated pediocin PA-1 to deplete specific species by cell sorting. To deplete L. seeligeri by killing, we created a synthetic community of L. casei, L. plantarum L. cremoris, E. faecium, and L. seeligeri and grew it for 2 h. We then split the culture into 3 parts to which we added 1 μM, 10 μM, or 0 (control) unmodified pediocin PA-1 (Lifetein), respectively. We observed that after 4 h, the proportion of L. seeligeri in the control (untreated) increased from 18 % to 60 %. […] Next, we assessed the ability of FITC-conjugated pediocin (Ped-FITC) and its 15-mer version to deplete the target species through cell sorting. Again, we created a synthetic community containing L. seeligeri in abundance and assessed the proportion before and after FACS of FITC labeled cells. We attempted to sequence the fluorescence-positive population but were unsuccessful due to poor DNA yield. However, the genomic DNA isolated from the fluorescence-negative population indicated depletion of more than 50 % in the proportion of L. seeligeri from the synthetic community (Figure 4B). […]

## 30-mer-FITC: FITC-conjugated extended 30-mer fragment (S15-K43) of pediocin PA-1 (SVDWGKATTCIINNGAMAWATGGHQGNHK; also: FITC-conjugated, site not given here; UniProt P29430 33-61, looked up, fragment)
L. seeligeri [1]
  binding at the tested pHs (in words): pH-dependent binding
L. seeligeri [1]; pH 6.0, L. seeligeri or the other species tested
  binding (in words): unable to bind to any species tested

## CC[C@H](C)[C@@H]1NC(=O)[C@@H](NC(=O)[C@@H](NC(=O)[C@@H](NC(=O)[C@H](C)NC(=O)[C@H](CCCCN)NC(=O)CNC(=O)[C@H](Cc2c[nH]c3ccccc23)NC(=O)[C@H](CC(=O)O)NC(=O)[C@@H](NC(=O)[C@H](CO)NC(=O)[C@@H]2CSSC[C@H](NC(=O)[C@@H](NC(=O)[C@@H](NC(=O)CNC(=O)[C@H](CC(N)=O)NC(=O)CNC(=O)[C@H](Cc3ccc(O)cc3)NC(=O)[C@H](Cc3ccc(O)cc3)NC(=O)[C@@H](N)CCCCN)C(C)C)[C@@H](C)O)C(=O)NCC(=O)N[C@@H](CCCCN)C(=O)N[C@@H](Cc3c[nH]cn3)C(=O)N[C@@H](CO)C(=O)N2)C(C)C)[C@@H](C)O)[C@@H](C)O)CSSC[C@@H](C(N)=O)NC(=O)[C@H](CCCCN)NC(=O)[C@H](Cc2c[nH]cn2)NC(=O)[C@H](CC(N)=O)NC(=O)CNC(=O)[C@H](CCC(N)=O)NC(=O)[C@H](Cc2c[nH]cn2)NC(=O)CNC(=O)CNC(=O)[C@H]([C@@H](C)O)NC(=O)[C@H](C)NC(=O)[C@H](Cc2c[nH]c3ccccc23)NC(=O)[C@H](C)NC(=O)[C@H](CCSC)NC(=O)[C@H](C)NC(=O)CNC(=O)[C@H](CC(N)=O)NC(=O)[C@H](CC(N)=O)NC(=O)[C@H]([C@@H](C)CC)NC1=O [pediocin PA-1 from Biomatik, reference compound]
L. seeligeri [2]
  antimicrobial activity (in words): very low activity

## CC[C@H](C)[C@@H]1NC(=O)[C@@H](NC(=O)[C@@H](NC(=O)[C@@H](NC(=O)[C@H](C)NC(=O)[C@H](CCCCN)NC(=O)CNC(=O)[C@H](Cc2c[nH]c3ccccc23)NC(=O)[C@H](CC(=O)O)NC(=O)[C@@H](NC(=O)[C@H](CO)NC(=O)[C@@H]2CSSC[C@H](NC(=O)[C@@H](NC(=O)[C@@H](NC(=O)CNC(=O)[C@H](CC(N)=O)NC(=O)CNC(=O)[C@H](Cc3ccc(O)cc3)NC(=O)[C@H](Cc3ccc(O)cc3)NC(=O)[C@@H](N)CCCCN)C(C)C)[C@@H](C)O)C(=O)NCC(=O)N[C@@H](CCCCN)C(=O)N[C@@H](Cc3c[nH]cn3)C(=O)N[C@@H](CO)C(=O)N2)C(C)C)[C@@H](C)O)[C@@H](C)O)CSSC[C@@H](C(N)=O)NC(=O)[C@H](CCCCN)NC(=O)[C@H](Cc2c[nH]cn2)NC(=O)[C@H](CC(N)=O)NC(=O)CNC(=O)[C@H](CCC(N)=O)NC(=O)[C@H](Cc2c[nH]cn2)NC(=O)CNC(=O)CNC(=O)[C@H]([C@@H](C)O)NC(=O)[C@H](C)NC(=O)[C@H](Cc2c[nH]c3ccccc23)NC(=O)[C@H](C)NC(=O)[C@H](CCSC)NC(=O)[C@H](C)NC(=O)CNC(=O)[C@H](CC(N)=O)NC(=O)[C@H](CC(N)=O)NC(=O)[C@H]([C@@H](C)CC)NC1=O [synthetic pediocin PA-1, reference compound]
L. seeligeri [2]; 24 h
  EC50: ~40 nM

## Ped-488: purified biosynthetic pediocin conjugated to Atto488 using EDC-NHS chemistry (KYYGNGVTCGKHSCSVDWGKATTCIINNGAMAWATGGHQGNHKC; disulfide (positions not given here); ends not checked; also: Atto488 conjugated via EDC-NHS, site not given here; UniProt P29430 19-62, looked up)
L. seeligeri [2]; Atto488 conjugate vs unmodified pediocin
  reduction in potency relative to the unmodified peptide: 10 fold
L. seeligeri [2]
  antimicrobial activity (in words): maintained its antimicrobial activity
L. seeligeri [2]; listed as Full-length pediocin conjugated to Atto488
  antimicrobial activity (in words): retained antimicrobial activity
L. seeligeri [2]; listed as conjugate to Atto488
  antimicrobial activity (in words): very low activity
L. coryniformis
  maximum median fluorescence: 6300 MFI
L. coryniformis; 4 °C 30 min, 1 % BSA, 100 mM NaCl, Hill fit, read-out: Apparent KD
  Kd: ~46 nM
B. subtilis; Atto488 conjugate up to 2 μM, 4 °C 30 min, 1 % BSA, 100 mM NaCl, Hill fit, read-out: Apparent KD
  Kd: ~467 nM

## Ped-FITC: synthesized FITC-conjugated full-length pediocin PA-1 ({FITC}-KYYGNGVTCGKHSCSVDWGKATTCIINNGAMAWATGGHQGNHKC; disulfide (positions not given here); ends not checked; UniProt P29430 19-62, looked up)
L. seeligeri [1]
  binding at the tested pHs (in words): strong binding
L. seeligeri [2]; listed as FITC-conjugation at the N-terminus
  antimicrobial activity (in words): abolished activity entirely
L. seeligeri [2]; listed as conjugate to FITC
  antimicrobial activity (in words): very low activity
[3]
  depletion in the proportion of L. seeligeri (fluorescence-negative population after FACS): more than 50%
B. subtilis; pH 6.0, highest concentration tested (30 μM)
  binding (in words): modest binding

## synthetic pediocin-Atto488 conjugate: Atto488 conjugated to the synthetic pediocin using EDC-NHS coupling (KYYGNGVTCGKHSCSVDWGKATTCIINNGAMAWATGGHQGNHKC; disulfide (positions not given here); ends not checked; also: Atto488 conjugated via EDC-NHS, site not given here; UniProt P29430 19-62, looked up)
L. seeligeri [2]
  antimicrobial activity (in words): inactive

## synthetic pediocin-NBD conjugate: NBD (7-nitrobenz-2-oxa-1,3-diazole) conjugated to the synthetic pediocin using EDC-NHS coupling (KYYGNGVTCGKHSCSVDWGKATTCIINNGAMAWATGGHQGNHKC; disulfide (positions not given here); ends not checked; also: NBD conjugated via EDC-NHS, site not given here; UniProt P29430 19-62, looked up)
L. seeligeri [2]
  antimicrobial activity (in words): inactive
L. seeligeri [2]; listed as conjugate to NBD
  antimicrobial activity (in words): very low activity
